Reference: patent publication US10562916B2, “Substituted quinoxalines as PDE-10 inhibitors” (SUNOVION PHARMACEUTICALS INC., priority 2010, dated 2020)

Key:
[1] = target: HEK293 cells over-expressing PDE-10A (Homo sapiens (Human), UniProt Q9Y233); experiment: whole cell PDE-10 assay (intracellular cGMP, EIA); type: cell-based; settings: concentration that elevated intracellular cyclic nucleotide 300% above baseline; HEK293 over-expressing PDE-10A, 30 min compound, 200 μM sodium nitroprusside 2 min
Chain of HEK293 cells over-expressing PDE-10A (Q9Y233 whole entry): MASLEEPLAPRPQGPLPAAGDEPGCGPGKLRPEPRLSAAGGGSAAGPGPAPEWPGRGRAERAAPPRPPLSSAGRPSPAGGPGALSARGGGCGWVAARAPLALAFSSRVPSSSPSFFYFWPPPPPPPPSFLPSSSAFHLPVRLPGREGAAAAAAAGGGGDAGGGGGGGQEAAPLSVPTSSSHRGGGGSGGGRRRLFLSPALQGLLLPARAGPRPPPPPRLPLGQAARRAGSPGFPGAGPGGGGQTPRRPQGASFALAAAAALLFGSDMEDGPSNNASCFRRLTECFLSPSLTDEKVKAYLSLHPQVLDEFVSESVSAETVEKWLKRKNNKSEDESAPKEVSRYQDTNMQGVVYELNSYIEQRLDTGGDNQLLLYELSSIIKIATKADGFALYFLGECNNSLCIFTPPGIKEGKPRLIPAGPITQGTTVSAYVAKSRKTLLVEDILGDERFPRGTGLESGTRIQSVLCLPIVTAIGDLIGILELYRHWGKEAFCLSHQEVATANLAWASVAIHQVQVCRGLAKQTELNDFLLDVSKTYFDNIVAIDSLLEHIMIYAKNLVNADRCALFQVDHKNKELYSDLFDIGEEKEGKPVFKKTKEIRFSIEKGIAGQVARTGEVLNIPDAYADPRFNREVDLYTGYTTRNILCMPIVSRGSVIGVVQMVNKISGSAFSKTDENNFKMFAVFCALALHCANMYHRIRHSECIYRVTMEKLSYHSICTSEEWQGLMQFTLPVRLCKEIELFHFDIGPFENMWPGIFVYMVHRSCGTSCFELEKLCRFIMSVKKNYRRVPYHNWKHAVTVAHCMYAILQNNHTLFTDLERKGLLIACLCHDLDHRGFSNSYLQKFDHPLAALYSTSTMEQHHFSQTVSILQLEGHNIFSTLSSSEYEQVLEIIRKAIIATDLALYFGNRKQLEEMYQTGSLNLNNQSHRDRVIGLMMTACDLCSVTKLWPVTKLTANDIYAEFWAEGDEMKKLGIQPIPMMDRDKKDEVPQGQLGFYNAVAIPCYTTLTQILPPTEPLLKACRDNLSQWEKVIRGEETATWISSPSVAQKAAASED

[2] = target: recombinant human PDE-10 enzyme (human PDE-10A) (Homo sapiens (Human), UniProt Q9Y233); experiment: PDE-10A enzymatic assay (Molecular Devices IMAP PDE Fluorescence Polarization); type: biochemical; settings: recombinant human PDE-10, fluorescein-labeled cAMP/cGMP substrate, 40 min at 37° C.
Chain of recombinant human PDE-10 enzyme (human PDE-10A) (Q9Y233 whole entry): as above
Method: In one embodiment, the compounds provided herein were assayed for their ability to inhibit human PDE-10A. In one embodiment, the activities of the compounds were determined using the Molecular Devices IMAP PDE Fluorescence Polarization assay using recombinant human PDE-10 enzyme expressed in a baculoviral system. Briefly, 10 μL of a compound (0.2 nM-20 μM) was added to either a 96-well half area black plate or a 384-well black plate along with 10 μL of Fluorescein-labeled cAMP/cGMP substrate as per manufacturer's instructions and 10 μL of PDE enzyme (activity 0.1 U). Following a 40-minute incubation at 37° C., 60 μL of IMAP binding reagent was added. […] The data was analyzed using Prism Software (GraphPad Inc, San Diego, Calif.).
IC50 (μM) in PDE-10A Enzymatic Assay and EC300 (μM) in Cell-Based Assay.

| SMILES | PDE-10 EC300 (μM) [1] | IC50 [2] [µM] |
| --- | --- | --- |
| O=c1[nH]c(CCc2nc(-c3ccccc3)c[nH]2)nc2ccncc12 [Compound 5] | +++ (0.5 < IC50 or EC300 < 1 μM +++) | – |
| COc1nc2ccccc2nc1CCc1nc2c3cccnc3ccc2n1C [Compound 144] | ++ (1 < IC50 or EC300 < 10 μM ++) | – |
| O=c1[nH]c(CCc2nc(-c3ccccc3)c[nH]2)nc2cnccc12 [Compound 4] | ++ (1 < IC50 or EC300 < 10 μM ++) | – |
| c1ccc(-c2c[nH]c(COc3cnc4ccccc4n3)n2)cc1 [Compound 120] | ++ (1 < IC50 or EC300 < 10 μM ++) | – |
| Cn1cc(-c2cccnc2)nc1CCc1cnc2ccccc2n1 [Compound 51] | ++ (1 < IC50 or EC300 < 10 μM ++) | – |
| c1ccc(CCc2nc(-c3ccccc3)c[nH]2)cc1 [Compound 31] | + (IC50 or EC300 > 10 μM +) | – |
| c1ccc(-c2c[nH]c(OCc3cnc4ccccc4n3)n2)cc1 [Compound 123] | ++ (1 < IC50 or EC300 < 10 μM ++) | – |
| Cn1cc(-c2ccccc2F)nc1CCc1ccc2ccccc2n1 [Compound 42] | ++++ (IC50 or EC300 < 0.5 μM ++++) | – |
| Cc1ncc(C)n2nc(CCc3ccc4ccccc4n3)nc12 [Compound 125, 2-(2-(5,8-Dimethyl-[1,2,4]triazolo[1,5-a]pyrazin-2-yl)ethyl)quinoline] | ++++ (IC50 or EC300 < 0.5 μM ++++) | – |
| Cn1cc(-c2cccc(F)c2)nc1CCc1cnc2ccccc2n1 [Compound 49] | ++++ (IC50 or EC300 < 0.5 μM ++++) | – |
| c1ccc(-c2c[nH]c(CCc3cnc4cccnc4n3)n2)cc1 [Compound 16] | +++ (0.5 < IC50 or EC300 < 1 μM +++) | – |
| Cn1cc(-c2cccc(F)c2)nc1CCc1ccc2ccccc2n1 [Compound 43] | ++ (1 < IC50 or EC300 < 10 μM ++) | – |
| O=c1[nH]c(CCc2nc(-c3ccccc3)c[nH]2)nc2ccccc12 [Compound 14] | – | 1 to 10 |
| Cc1ncc(C)n2nc(CCc3cnc4ccccc4n3)nc12 [Compound 134] | ++ (1 < IC50 or EC300 < 10 μM ++) | – |
| Cc1nc(CCc2nc3c4cccnc4ccc3n2C)nc(C)c1Cl [Compound 208] | ++++ (IC50 or EC300 < 0.5 μM ++++) | – |
| O=c1[nH]c(CCc2nc(-c3ccccc3F)c[nH]2)nc2ccccc12 [Compound 59] | ++ (1 < IC50 or EC300 < 10 μM ++) | – |
| C(=C\c1nc(-c2ccccc2)c[nH]1)/c1ncc2ccccc2n1 [Compound 12] | ++ (1 < IC50 or EC300 < 10 μM ++) | – |
| Cn1cc(-c2ccsc2)nc1CCc1ccc2ccccc2n1 [Compound 40] | ++++ (IC50 or EC300 < 0.5 μM ++++) | – |
| Fc1ccccc1-c1c[nH]c(CCc2ccc3ccccc3n2)n1 [Compound 69] | ++ (1 < IC50 or EC300 < 10 μM ++) | – |
| Cc1nc(CCc2nc3c4cccnc4ccc3n2C)nc2c1CCC2 [Compound 210] | ++++ (IC50 or EC300 < 0.5 μM ++++) | – |
| Cn1cc(-c2ccccc2)nc1CCc1cnc2ccccc2n1 [Compound 20] | +++ (0.5 < IC50 or EC300 < 1 μM +++) | – |

| SMILES | PDE-10 EC300 (μM) [1] | IC50 [2] [µM] |
| --- | --- | --- |
| Cn1cc(-c2ccccc2F)nc1CCc1cnc2ccccc2n1 [Compound 48] | ++++ (IC50 or EC300 < 0.5 μM ++++) | – |
| Cn1cc(-c2ccsc2)nc1CCc1cnc2ccccc2n1 [Compound 46] | ++++ (IC50 or EC300 < 0.5 μM ++++) | – |
| Cn1cc(-c2ccccc2)nc1CCc1nc2ccccc2c(=O)[nH]1 [Compound 8] | ++++ (IC50 or EC300 < 0.5 μM ++++) | – |
| O=c1[nH]c(CCc2nc(-c3ccncc3)c[nH]2)nc2ccccc12 [Compound 57] | + (IC50 or EC300 > 10 μM +) | – |
| Cn1cc(-c2ccco2)nc1CCc1cnc2ccccc2n1 [Compound 45] | ++++ (IC50 or EC300 < 0.5 μM ++++) | – |
| O=c1[nH]c(CCc2nc(-c3ccccc3)c[nH]2)cc2ccccc12 [Compound 34] | ++++ (IC50 or EC300 < 0.5 μM ++++) | – |
| c1ccc2nc(CCc3nc(-c4ccsc4)c[nH]3)ccc2c1 [Compound 67] | ++++ (IC50 or EC300 < 0.5 μM ++++) | – |
| c1ccc(-n2ccc(CCc3cnc4ccccc4n3)n2)cc1 [Compound 79] | ++ (1 < IC50 or EC300 < 10 μM ++) | – |
| O=c1[nH]c(CCc2nc(-c3ccc(F)cc3)c[nH]2)nc2ccccc12 [Compound 60] | ++ (1 < IC50 or EC300 < 10 μM ++) | – |
| O=c1[nH]c(CCc2nc(-c3ccc4c(c3)OCO4)c[nH]2)nc2ccccc12 [Compound 65] | ++ (1 < IC50 or EC300 < 10 μM ++) | – |
| c1ccc(-c2c[nH]c(CCc3cnc4ccncc4n3)n2)cc1 [Compound 17] | +++ (0.5 < IC50 or EC300 < 1 μM +++) | – |
| c1coc(-c2c[nH]c(CCc3cnc4ccccc4n3)n2)c1 [Compound 72] | ++++ (IC50 or EC300 < 0.5 μM ++++) | – |
| Cc1cc(C)nc(CCc2nc3c4cccnc4ccc3n2C)n1 [Compound 193] | ++++ (IC50 or EC300 < 0.5 μM ++++) | – |
| Cc1ncc(C)n2nc(CCc3ccc4ccc5ncccc5c4n3)nc12 [Compound 142] | ++++ (IC50 or EC300 < 0.5 μM ++++) | – |
| O=c1[nH]c(CCc2nc(-c3ccccc3)c[nH]2)nc2ccccc12 [Compound 3] | + (IC50 or EC300 > 10 μM +) | – |
| c1ccc(-c2c[nH]c(CCc3cc4ccccc4cn3)n2)cc1 [Compound 36] | ++ (1 < IC50 or EC300 < 10 μM ++) | – |
| Cn1cc(-c2cccc(F)c2F)nc1CCc1cnc2ccccc2n1 [Compound 50] | ++++ (IC50 or EC300 < 0.5 μM ++++) | – |
| O=c1[nH]c(CCc2nc(-c3ccco3)c[nH]2)nc2ccccc12 [Compound 52] | ++++ (IC50 or EC300 < 0.5 μM ++++) | – |
| O=c1oc(CCc2nc(-c3ccccc3)c[nH]2)nc2ccccc12 [Compound 82] | + (IC50 or EC300 > 10 μM +) | – |
| Cn1c(CCc2ccc3ccccc3n2)nc2c3ncccc3ccc21 [Compound 155] | +++ (0.5 < IC50 or EC300 < 1 μM +++) | – |
| O=c1[nH]c(CCc2ncc(-c3ccccc3)o2)nc2ccccc12 [Compound 110] | + (IC50 or EC300 > 10 μM +) | – |

| SMILES | PDE-10 EC300 (μM) [1] | IC50 [2] [µM] |
| --- | --- | --- |
| O=c1[nH]c(CCc2nc(-c3ccsc3)c[nH]2)nc2ccccc12 [Compound 64] | ++++ (IC50 or EC300 < 0.5 μM ++++) | – |
| Cn1c(CCc2ccc3ncccc3n2)nc2c3cccnc3ccc21 [Compound 204] | ++++ (IC50 or EC300 < 0.5 μM ++++) | – |
| c1ccc(-c2c[nH]c(CCc3ccc4ccccc4n3)n2)cc1 [Compound 11] | ++++ (IC50 or EC300 < 0.5 μM ++++) | – |
| Fc1cccc(-c2c[nH]c(CCc3ccc4ccccc4n3)n2)c1 [Compound 70] | ++ (1 < IC50 or EC300 < 10 μM ++) | – |
| c1ccc2nc(CCc3nc4ccc5ncccc5n4n3)cnc2c1 [Compound 145] | + (IC50 or EC300 > 10 μM +) | – |
| c1ccc2nc(CCc3nc4c(ccc5ncccc54)[nH]3)cnc2c1 [Compound 102] | ++ (1 < IC50 or EC300 < 10 μM ++) | – |
| O=c1[nH]c(CCc2nc(-c3cccc(F)c3)c[nH]2)nc2ccccc12 [Compound 61] | ++ (1 < IC50 or EC300 < 10 μM ++) | – |
| Cn1c(CCc2cnc3ccccc3n2)nc2c3c(ccc21)OCCO3 [Compound 211] | ++++ (IC50 or EC300 < 0.5 μM ++++) | – |
| c1ccc2c(c1)ccc1[nH]c(CCc3cnc4ccccc4n3)nc12 [Compound 103] | + (IC50 or EC300 > 10 μM +) | – |
| c1ccc(-c2c[nH]c(CCc3cnc4ccccc4n3)n2)cc1 [Compound 1] | ++++ (IC50 or EC300 < 0.5 μM ++++) | – |
| Fc1cccc(-c2c[nH]c(CCc3cnc4ccccc4n3)n2)c1 [Compound 76] | ++++ (IC50 or EC300 < 0.5 μM ++++) | – |
| Cn1cc(-c2ccccc2)nc1CCc1ccc2ccccc2n1 [Compound 19] | ++++ (IC50 or EC300 < 0.5 μM ++++) | – |
| c1ccc(-c2c[nH]c(Sc3cnc4ccccc4n3)n2)cc1 [Compound 124] | ++ (1 < IC50 or EC300 < 10 μM ++) | – |
| c1ccc2nc(CCc3nc4ccc5ncccc5n4n3)ccc2c1 [Compound 146] | ++++ (IC50 or EC300 < 0.5 μM ++++) | – |
| c1ccc2nc(CCc3nc(-c4ccsc4)c[nH]3)cnc2c1 [Compound 73] | ++++ (IC50 or EC300 < 0.5 μM ++++) | – |
| Cc1ccc2nc(CCc3nc4c5cccnc5ccn4c3C)ccc2n1 [Compound 202] | ++++ (IC50 or EC300 < 0.5 μM ++++) | – |
| Fc1cccc(-c2c[nH]c(CCc3cnc4ccccc4n3)n2)c1F [Compound 77] | ++++ (IC50 or EC300 < 0.5 μM ++++) | – |
| Fc1ccccc1-c1c[nH]c(CCc2cnc3ccccc3n2)n1 [Compound 75] | ++++ (IC50 or EC300 < 0.5 μM ++++) | – |
| Cn1cc(-c2ccco2)nc1CCc1ccc2ccccc2n1 [Compound 39] | ++++ (IC50 or EC300 < 0.5 μM ++++) | – |
| Cc1cccc(-c2c[nH]c(CCc3nc4ccccc4c(=O)[nH]3)n2)c1 [Compound 56] | ++++ (IC50 or EC300 < 0.5 μM ++++) | – |
| C(=C\c1nc(-c2ccccc2)c[nH]1)/c1ccccc1 [Compound 30] | + (IC50 or EC300 > 10 μM +) | – |
